Data on four molecules can be found in US11479553B2, “5-5 fused rings as C5a inhibitors” (CHEMOCENTRYX, INC., priority 2017, dated 2022).

Sequence of C5aR (P21730 whole entry): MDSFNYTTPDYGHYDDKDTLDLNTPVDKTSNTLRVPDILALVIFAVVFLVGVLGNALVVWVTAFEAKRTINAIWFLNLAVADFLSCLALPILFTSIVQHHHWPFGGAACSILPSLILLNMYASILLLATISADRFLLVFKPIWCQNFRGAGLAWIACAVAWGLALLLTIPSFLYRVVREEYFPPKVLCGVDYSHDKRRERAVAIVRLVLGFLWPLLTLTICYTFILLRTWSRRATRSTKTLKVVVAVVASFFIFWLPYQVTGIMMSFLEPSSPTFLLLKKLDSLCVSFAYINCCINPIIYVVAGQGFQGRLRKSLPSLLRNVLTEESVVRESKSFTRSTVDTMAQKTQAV

For the experiment, the target named is C5aR (Homo sapiens (Human), UniProt P21730). The experiment is described as follows: Chemotaxis assay (inhibition of C5aR mediated migration toward C5a). The experiment is classed as cell-based. Conditions: inhibition in the chemotaxis assay (Example 14 B.3); U937 or neutrophil cells, C5a as chemoattractant. How it is done:
U937 cells are a monocytic cell line which express C5aR, and are available from ATCC (VA). These cells were cultured as a suspension in RPMI-1640 medium supplemented with 2 mM L-glutamine, 1.5 g/L sodium bicarbonate, 4.5 g/L glucose, 10 mM HEPES, 1 mM sodium pyruvate, and 10% FBS. Cells were grown under 5% CO2/95% air, 100% humidity at 37° C. and subcultured twice weekly at 1:6 (cells were cultured at a density range of 1×10^5 to 2×10^6 cells/mL) and harvested at 1×10^6 cells/mL. Prior to assay, cells are treated overnight with 0.5 mM of cyclic AMP (Sigma, OH) and washed once prior to use. cAMP treated U937 cells can be used in C5aR ligand binding and functional assays.
Optionally, human or murine neutrophils can be used to assay for compound activity. Neutrophils may be isolated from fresh human blood using density separation and centrifigation. Briefly, whole blood is incubated with equal parts 3% dextran and allowed to separate for 45 minutes. After separation, the top layer is layered on top of 15 mls of Ficoll (15 mls of Ficoll for every 30 mls of blood suspension) and centrifuged for 30 minutes at 400×g with no brake. The pellet at the bottom of the tube is then isolated and resuspended into PharmLyse RBC Lysis Buffer (BD Biosciences, San Jose, Calif.) after which the sample is again centrifuged for 10 minutes at 400×g with brake. The remaining cell pellet is resuspended as appropriate and consists of isolated neutrophils.
Optionally, compounds may be further assayed for their ability to inhibit chemotaxis in cells. Chemotaxis assays are performed using 5 μm pore polycarbonate, polyvinylpyrrolidone-coated filters in 96-well chemotaxis chambers (Neuroprobe; Gaithersburg, Md.) using chemotaxis buffer (Hank's balanced salt solution (HBSS) and 1% FBS). C5aR ligands (i.e., C5a, R&D Systems; Minneapolis, Minn.) are use to evaluate compound mediated inhibition of C5aR mediated migration. Other chemokines (i.e., SDF-1α; R&D Systems; Minneapolis, Minn.) are used as specificity controls. The lower chamber is loaded with 29 μl of chemokine (i.e., 0.03 nM C5a) and varying amounts of compound; the top chamber contains 100,000 U937 or neutrophil cells in 20 μl. The chambers are incubated 1.5 hours at 37° C., and the number of cells in the lower chamber quantified either by direct cell counts in five high powered fields per well or by the CyQuant assay (Molecular Probes), a fluorescent dye method that measures nucleic acid content and microscopic observation.
On to `Cc1cccc(C)c1-n1nc2c(c1-c1ccc3[nH]ccc3c1)CN(CC(C)(C)C)C2` [Compound 1.051], for which the IC50 was not below 0.5 µM.

`CCc1cccc(CC)c1-n1nc2c(c1-c1ccc(F)c3[nH]ccc13)CN(C(=O)C(C)(C)C(F)(F)F)C2(C)C` [Compound 1.033]: the IC50 is 0.005 to 0.05 µM.

Take `CCc1cccc(CC)c1-n1nc2c(c1-c1ccc(F)c3[nH]ccc13)CN(CC(C)(C)C)C2(C)C` [Compound 1.009]: the half-maximal inhibitory concentration (IC50) lay in the range of 0.05 to 0.5 µM.

`CCc1cccc(CC)c1-n1nc2c(c1-c1ccc(F)c3[nH]ccc13)CN(CC(C)(C)C(F)(F)F)C2(C)C` [Compound 1.032]: the IC50 is less than 0.005 µM.
